Test results reported in patent publication US10722491B2, “Phenol compound and combination of same with a benzodiazepine fused to 1,4-dihydropyridine for treating diseases of the central nervous and vascular systems” (UNIVERSIDAD DE LA HABANA, priority 2016, dated 2020).

How the values were obtained:
[1] = tested on: occlusion of the middle cerebral artery in rats; assay: Transient middle cerebral artery occlusion, neurological deficit score; type: in vivo; conditions: 0.5 and 1 mg/kg oral, 1 hour after reperfusion
Experimental: FIG. 13. Acute treatment with KM-34 reduced the volume of infarction edema and deficit in rat behavior after 90 min of middle cerebral artery occlusion (MACA) and 23 hours of reperfusion. The different doses of the compound were administered orally 1 hour after reperfusion. (A) Representative brain coronal sections (2 mm thick) of the sham and ischemic groups treated with vehicle or KM-34 (0.1, 0.5 or 1 mg/kg) and stained with 2,3,5-triphenyltetrazolium (TTC) 2%. The red regions correspond to undamaged tissue and white to ischemic regions. (B) Quantitative analysis of cortical, subcortical and total lesion size. (C) Neurological deficit. The bars represent the mean ± SEM (n=8). Different letters in (A) and * in (B): p<0.05, by ANOVA and post hoc of Newman-Keuls. Scale=10 mm. […]
Transient cerebral ischemia was performed by the OACM, using the intraluminal filament method. […] After 23 hours of reperfusion, the neurological deficit was evaluated and the animals sacrificed to determine the infarct volume and perform the behavioral evaluations.
Neurological deficit was assessed according to a six-point scale: 0=no observable neurological deficit; 1=no extension of the left front leg; 2=shifts in circles to the left if the animal is suspended by the tail; 3=spontaneous displacements in circles to the left; 4=no spontaneous motor activity with decreased level of consciousness; 5=death.

[2] = tested on: scopolamine cognitive deficit; assay: Scopolamine-induced dementia, T maze spontaneous alternation; type: in vivo, rats; conditions: 2, 4 and 8 mg/kg p.o., 1 hour before scopolamine 1 mg/kg i.p.
Experimental: FIG. 11. Effect of KM-34 on spatial memory. In the T labyrinth, KM-34 (2, 4 and 8 mg/k, p.o) was given 1 hour prior to scopolamine (1 mg/kg, i.p.). Data are expressed as mean ± SD (n=7, per group) of the percentage of spontaneous alternation. For statistical anal sis ANOVA and Tukey's multiple comparison test were performed. Different letters differ from each other for p<0.01. In in vivo models, KM-34 was administered orally (p.o) at a rate of 4 mL/kg body weight. Doses of 2, 4 and 8 mg/kg were evaluated as acute administration 90 minutes before the start of behavioral tests. For administration the compound was suspended in carboxymethylcellulose (CMC) 0.05%. Scopolamine bromide was dissolved in 0.9% saline solution and administered intraperitoneally as a single dose (1 mg/kg, 4 mL/kg body weight) 30 minutes prior to the initiation of the behavioral tests. The animals were randomly selected and divided into 5 experimental groups with different treatments (n=7, per group): control group (CMC and saline), vehicle group (CMC and scopolamine 1 mg/kg), KM-34 (KM-34 4 mg/kg and scopolamine 1 mg/kg) and (KM-34 8 mg/kg and scopolamine 1 mg/kg). […] The series of entries to each arm was recorded and the percentage of alternation was calculated as: (number of alternations performed/total of possible alternations)×100. […]

PC12 cells = assay: Cytoprotection against L-glutamate damage in PC12 cells (MTT); type: cell-based; conditions: 50 mM L-glutamate
Experimental: FIG. 6. Cytoprotective effect of KM-34 10001-10 HM) against damage induced by L-glutamate (50 mmol/L) in cultures of PC12 cells. Viability (% live cells) was determined by the MTT assay. Cells were seeded at a density of 5×10^5 cells/mL in a 96-well plate. KM-34 was added simultaneously to the addition of L-glutamate. The culture was then allowed to incubate at 37° C, […] and 5% CO 2 for 4 hours. After this time the supernatant was removed and the cells were incubated with 20 μg of MTT for an additional 2 hours and the absorbance at 450 nm was measured with reference to 630 nm. The results are expressed as percentage of live cells relative to the control (cells without damage, 100% of live cells. * Represents significant differences (p<0.05) with respect to the L-glutamate control.
FIG. 14. The survival rate for […] administered 50 mM Glutamate is shown. The control group was not administered 50 mM Glutamate. The remaining four groups were administered 50 mM Glutamate. The “Glu 50 mM” group was not administered any compounds of the invention. The “JM 0.01 μM” group was administered 0.01 μM JM-20. The “KM 0.01 μM” group was administered 0.01 μM KM-34. The “JM 0.01 μM+KM 0.01 μM” group was administered 0.01 μM JM-20 and 0.01 μM KM-34.
At values above 1 μM KM-34, the cytoprotection response is greater than 80%.

CC1(C)OC(=O)C(=Cc2ccc(O)c(O)c2)C(=O)O1 [KM-34, 5-[(3,4-dihydroxyphenyl)methylidene]-2,2-dimethyl-1,3-dioxane-4,6-dione]
Neurological deficit (neurological score) [1]: significantly improved (p<0.05) the neurological deficit | Spatial memory, percentage of spontaneous alternation in T maze [2]: significantly (p<0.01) protected from spatial memory damage | Concentration significantly (P<0.01) inhibiting cell damage by L-glutamate (PC12 cells; 4 hours): greater than 0.01 μM | Cytoprotection response (PC12 cells; above 1 μM KM-34): greater than 80%
